Consider 27 molecules from patent US7851474B2, “Dipiperazinyl ketones and related analogues” (Neurogen Corporation, priority 2005, dated 2010).

For this assay, the target named is T1, chimeric human H3 receptor (Homo sapiens, UniProt Q9Y5N1, E19D).
T1 construct: made in house; host or cells: Sf9 insect cells (baculovirus infection); P2 membrane preparation
T1 sequence (Q9Y5N1 with tags, fused parts or gaps E19D): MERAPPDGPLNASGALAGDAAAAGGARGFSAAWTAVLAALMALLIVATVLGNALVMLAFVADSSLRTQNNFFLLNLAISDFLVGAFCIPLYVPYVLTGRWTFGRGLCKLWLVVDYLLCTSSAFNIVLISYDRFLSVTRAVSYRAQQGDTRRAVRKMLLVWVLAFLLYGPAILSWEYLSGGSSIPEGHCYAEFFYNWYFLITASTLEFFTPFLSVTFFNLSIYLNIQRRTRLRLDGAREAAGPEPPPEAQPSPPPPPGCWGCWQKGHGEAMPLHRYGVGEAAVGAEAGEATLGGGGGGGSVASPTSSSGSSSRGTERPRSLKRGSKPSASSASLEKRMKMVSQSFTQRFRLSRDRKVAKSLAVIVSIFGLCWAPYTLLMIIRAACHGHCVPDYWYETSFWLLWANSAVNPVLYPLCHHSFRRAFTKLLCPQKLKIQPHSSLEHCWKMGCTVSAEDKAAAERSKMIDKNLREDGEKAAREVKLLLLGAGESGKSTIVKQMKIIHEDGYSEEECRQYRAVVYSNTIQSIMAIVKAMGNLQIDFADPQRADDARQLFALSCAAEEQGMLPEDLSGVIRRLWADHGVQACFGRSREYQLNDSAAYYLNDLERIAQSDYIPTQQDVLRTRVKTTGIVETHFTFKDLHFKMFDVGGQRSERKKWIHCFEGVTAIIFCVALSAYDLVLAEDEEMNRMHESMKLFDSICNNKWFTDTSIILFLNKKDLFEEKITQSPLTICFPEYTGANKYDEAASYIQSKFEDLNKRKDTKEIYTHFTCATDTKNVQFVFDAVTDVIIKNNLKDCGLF
As to the kind of experiment: Chimeric human H3 receptor screening GTP binding assay (inhibition of histamine-stimulated GTP-gamma35S binding, Example 8). Format: biochemical. Particulars: 1 h; "+" in Ki of Table II; assay of Example 8; read-out: percent inhibition of agonist-induced GTP-gammaS binding to H3. Summed up:
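Data are percent inhibition of the 1 μM histamine-stimulated GTP-gamma35S (125 pM) binding, after non-specific binding (10 uM GTP-gammaS) is subtracted. Test compound at 4 μM. Incubation was 60 min at room temperature with Sf9 membranes bearing receptor plus G-protein subunits, buffer pH 7.4 with 10 μM GDP, and filtration read-out.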
As to `O=C(/C=C/c1c(Cl)cccc1Cl)N1CCN(CC(=O)N2CCN(C3CCC3)CC2)CC1` [Compound 522, 1-cyclobutyl-4-({4-[(2E)-3-(2,6-dichlorophenyl)prop-2-enoyl]piperazin-1-yl}acetyl)piperazine], the inhibition – broadly, the share of the control response that was lost under treatment – at 4 µM was above 90%.
For `CCOc1ccccc1/C=C/C(=O)N1CCN(CC(=O)N2CCN(C3CCC3)CC2)CC1` [Compound 523, 1-cyclobutyl-4-({4-[(2E)-3-(2-ethoxyphenyl)prop-2-enoyl]piperazin-1-yl}acetyl)piperazine], the inhibition at 4 µM is above 90%.
For `O=C(C=Cc1ccccc1F)N1CCN(CC(=O)N2CCN(C3CCC3)CC2)CC1` [Compound 524, 1-cyctobutyl-4-({4-[(2E)-3-(2-fluorophenyl)prop-2-enoyl]piperazin-1-yl}acetyl)piperazine], the inhibition at 4 µM was above 90%.
The same measure for `COc1ccccc1/C=C/C(=O)N1CCN(CC(=O)N2CCN(C3CCC3)CC2)CC1` [Compound 525, 1-cyclobutyl-4-({4-[(2E)-3-(2-methoxyphenyl)prop-2-enoyl]piperazin-1-yl}acetyl)piperazine]: above 90%.
As for `Cc1ccccc1/C=C/C(=O)N1CCN(CC(=O)N2CCN(C3CCC3)CC2)CC1` [Compound 526, 1-cyclobutyl-4-({4-[(2E)-3-(2-methylphenyl)prop-2-enoyl]piperazin-1-yl}acetyl)piperazine], the inhibition at 4 µM is above 90%.
As to `O=C(/C=C/c1ccc(Cl)c(Cl)c1)N1CCN(CC(=O)N2CCN(C3CCC3)CC2)CC1` [Compound 527, 1-cyclobutyl-4-({4-[(2E)-3-(3,4-dichlorophenyl)prop-2-enoyl]piperazin-1-yl}acetyl)piperazine], the inhibition at 4 µM was above 90%.
The result for `COc1ccc(/C=C/C(=O)N2CCN(CC(=O)N3CCN(C4CCC4)CC3)CC2)cc1OC` [Compound 528, 1-cyclobutyl-4-({4-[(2E)-3-(3,4-dimethoxyphenyl)prop-2-enoyl]piperazin-1-yl}acetyl)piperazine] reads above 90%; that for `O=C(/C=C/c1ccc(F)cc1)N1CCN(CC(=O)N2CCN(C3CCC3)CC2)CC1` [Compound 529, 1-cyclobutyl-4-({4-[(2E)-3-(4-fluorophenyl)prop-2-enoyl]piperazin-1-yl}acetyl)piperazine], above 90%; that for `COc1ccc(/C=C/C(=O)N2CCN(CC(=O)N3CCN(C4CCC4)CC3)CC2)cc1` [Compound 530, 1-cyclobutyl-4-({4-[(2E)-3-(4-methoxyphenyl)prop-2-enoyl]piperazin-1-yl}acetyl)piperazine], above 90%.
Take `O=C(/C=C/c1ccc(OCc2ccc(F)cc2)cc1)N1CCN(CC(=O)N2CCN(C3CCC3)CC2)CC1` [Compound 531, 1-cyclobutyl-4-({4-[(2E)-3-{4-[(4-fluorobenzyl)oxy]phenyl}prop-2-enoyl]piperazin-1-yl}acetyl)piperazine]: the inhibition at 4 µM is above 90%.
On to `O=C(/C=C/c1ccccc1)N1CCN(CC(=O)N2CCN(C3CCC3)CC2)CC1` [Compound 532, 1-cyclobutyl-4-({4-[(2E)-3-phenylprop-2-enoyl]piperazin-1-yl}acetyl)piperazine], for which the inhibition at 4 µM was above 90%.
In the case of `CCOc1ccccc1CC(=O)N1CCN(CC(=O)N2CCN(C3CCC3)CC2)CC1` [Compound 533, 1-cyclobutyl-4-({4-[(2-ethoxyphenyl)acetyl]piperazin-1-yl}acetyl)piperazine], the inhibition at 4 µM was above 90%.
Take `O=C(Cc1ccccc1F)N1CCN(CC(=O)N2CCN(C3CCC3)CC2)CC1` [Compound 534, 1-cyclobutyl-4-({4-[(2-fluorophenyl)acetyl]piperazin-1-yl}acetyl)piperazine]: the inhibition at 4 µM was above 90%.
The same measure for `COc1ccccc1OCC(=O)N1CCN(CC(=O)N2CCN(C3CCC3)CC2)CC1` [Compound 535, 1-cyclobutyl-4-({4-[(2-methoxyphenoxy)acetyl]piperazin-1-yl}acetyl)piperazine]: above 90%.
The result for `COc1ncccc1C(=O)N1CCN(CC(=O)N2CCN(C3CCC3)CC2)CC1` [Compound 537, 1-cyclobutyl-4-({4-[(2-methoxypyridin-3-yl)carbonyl]piperazin-1-yl}acetyl)piperazine] reads above 90%; that for `Cc1ccccc1OCC(=O)N1CCN(CC(=O)N2CCN(C3CCC3)CC2)CC1` [Compound 538, 1-cyclobutyl-4-({4-[(2-methylphenoxy)acetyl]piperazin-1-yl}acetyl)piperazine], above 90%; that for `Cc1ccccc1CC(=O)N1CCN(CC(=O)N2CCN(C3CCC3)CC2)CC1` [Compound 539, 1-cyclobutyl-4-({4-[(2-methylphenyl)acetyl]piperazin-1-yl}acetyl)piperazine], above 90%.
For the molecule `O=C(COc1ccc2ccccc2c1)N1CCN(CC(=O)N2CCN(C3CCC3)CC2)CC1` [Compound 540, 1-cyclobutyl-4-({4-[(2-naphthyloxy)acetyl]piperazin-1-yl}acetyl)piperazine], the inhibition at 4 µM is above 90%.
For `O=C(CN1CCN(C(=O)c2cccnc2Oc2ccccc2)CC1)N1CCN(C2CCC2)CC1` [Compound 542, 1-cyclobutyl-4-({4-[(2-phenoxypyridin-3-yl)carbonyl]piperazin-1-yl}acetyl)piperazine], the inhibition at 4 µM is above 90%.
Take `O=C(CN1CCN(C(=O)c2csc(-c3ccncc3)n2)CC1)N1CCN(C2CCC2)CC1` [Compound 543, 1-cyclobutyl-4-({4-[(2-pyridin-4-yl-1,3-thiazol-4-yl)carbonyl]piperazin-1-yl}acetyl)piperazine]: the inhibition at 4 µM is above 90%.
Turning to `COc1cc(CC(=O)N2CCN(CC(=O)N3CCN(C4CCC4)CC3)CC2)cc(OC)c1OC` [Compound 544, 1-cyclobutyl-4-({4-[(3,4,5-trimethoxyphenyl)acetyl]piperazin-1-yl}acetyl)piperazine], the inhibition at 4 µM was above 90%.
The result for `O=C(COc1ccc(Cl)c(Cl)c1)N1CCN(CC(=O)N2CCN(C3CCC3)CC2)CC1` [Compound 545, 1-cyclobutyl-4-({4-[(3,4-dichlorophenoxy)acetyl]piperazin-1-yl}acetyl)piperazine] reads above 90%; that for `O=C(Cc1ccc(Cl)c(Cl)c1)N1CCN(CC(=O)N2CCN(C3CCC3)CC2)CC1` [Compound 546, 1-cyclobutyl-4-({4-[(3,4-dichlorophenyl)acetyl]piperazin-1-yl}acetyl)piperazine], above 90%.
`COc1ccc(CC(=O)N2CCN(CC(=O)N3CCN(C4CCC4)CC3)CC2)cc1OC` [Compound 547, 1-cyclobutyl-4-({4-[(3,4-dimethoxyphenyl)acetyl]piperazin-1-yl}acetyl)piperazine]: the inhibition at 4 µM was above 90%.
For the molecule `COc1cc(CC(=O)N2CCN(CC(=O)N3CCN(C4CCC4)CC3)CC2)cc(OC)c1` [Compound 548, 1-cyclobutyl-4-({4-[(3,5-dimethoxyphenyl)acetyl]piperazin-1-yl}acetyl)piperazine], the inhibition at 4 µM was above 90%.
With `CCOc1ccsc1C(=O)N1CCN(CC(=O)N2CCN(C3CCC3)CC2)CC1` [Compound 549, 1-cyclobutyl-4-({4-[(3-ethoxy-2-thienyl)carbonyl]piperazin-1-yl}acetyl)piperazine], the inhibition at 4 µM was above 90%.
The same measure for `O=C(Cc1cccc(F)c1)N1CCN(CC(=O)N2CCN(C3CCC3)CC2)CC1` [Compound 550, 1-cyclobutyl-4-({4-[(3-fluorophenyl)acetyl]piperazin-1-yl}acetyl)piperazine]: above 90%.
